SMILES strings stand for the structures.

This assay deals with Wnt activity. The assay can be described thus: Wnt activity reporter assay (SP5 promoter firefly luciferase in SW480 cells). Type of assay: cell-based. The settings on record: Homo sapiens; SW480 cells bearing SP5 promoter luciferase reporter; 24 h after compound addition; read-out: Wnt inhibition. An excerpt:
The above synthesized compounds were screened using the assay procedure for Wnt activity described below.
Reporter cell lines can be generated by stably transducing cells of cancer cell lines (e.g., colon cancer) with a lentiviral construct that include a wnt-responsive promoter driving expression of the firefly luciferase gene.
Lentiviral constructs can be made in which the SP5 promoter, a promoter having eight TCF/LEF binding sites derived from the SP5 promoter, is linked upstream of the firefly luciferase gene. The lentiviral constructs can also include a hygromycin resistance gene as a selectable marker. The SP5 promoter construct can be used to transduce SW480 cells, a colon cancer cell line having a mutated APC gene that generates a truncated APC protein, leading to de-regulated accumulation of β-catenin.
Cultured SW480 cells bearing a reporter construct can be distributed at approximately 10,000 cells per well into 384 well multiwell plates. Compounds from a small molecule compound library can then be added to the wells in half-log dilutions using a three micromolar top concentration. A series of control wells for each cell type receive only buffer and compound solvent. Twenty-four hours after the addition of compound, reporter activity for luciferases can be assayed, for example, by addition of the BrightGlo luminescence reagent (Promega) and the Victor3 plate reader (Perkin Elmer). Readings can be normalized to DMSO only treated cells, and normalized activities can then be used in the IC50 calculations.
As for `CN1CCN(c2cncc3[nH]c(-c4n[nH]c5ccc(-c6cncc(NC(=O)CC(C)(C)C)c6)cc45)nc23)CC1` [Compound 257, 3,3-Dimethyl-N-(5-(3-(7-(4-methylpiperazin-1-yl)-3H-imidazo[4,5-c]pyridin-2-yl)-1H-indazol-5-yl)pyridin-3-yl)butanamide], the IC50 was determined as 95 nM.

As to `CCC(=O)Nc1cncc(-c2ccc3[nH]nc(-c4nc5c(-c6cncc(F)c6)cncc5[nH]4)c3c2)c1` [Compound 20, N-(5-(3-(7-(5-fluoropyridin-3-yl)-3H-imidazo[4,5-c]pyridin-2-yl)-1H-indazol-5-yl)pyridin-3-yl)propionamide], the IC50 fell in the range of 1.4 to 1.8 nM.

As to `CN(C)c1cncc(-c2ccc3[nH]nc(-c4nc5c(-c6ccsc6)cncc5[nH]4)c3c2)c1` [Compound 295, N,N-Dimethyl-5-(3-(7-(thiophen-3-yl)-3H-imidazo[4,5-c]pyridin-2-yl)-1H-indazol-5-yl)pyridin-3-amine], the IC50 is 3 nM.

As for `O=C(Nc1cncc(-c2ccc3[nH]nc(-c4nc5c(-c6cccc(F)c6)cncc5[nH]4)c3c2)c1)C1CC1` [Compound 91, N-(5-(3-(7-(3-Fluorophenyl)-3H-imidazo[4,5-c]pyridin-2-yl)-1H-indazol-5-yl)pyridin-3-yl)cyclopropanecarboxamide], the IC50 was determined as 2 nM.

`Fc1ccc(-c2cncc3[nH]c(-c4n[nH]c5ccc(-c6cncc(CN7CCCC7)c6)cc45)nc23)cc1` [Compound 107, 7-(4-Fluorophenyl)-2-(5-(5-(pyrrolidin-1-ylmethyl)pyridin-3-yl)-1H-indazol-3-yl)-3H-imidazo[4,5-c]pyridine]: the IC50 is 52 nM.

As for `CN(C)Cc1cncc(-c2ccc3[nH]nc(-c4nc5c(-c6ccccn6)cncc5[nH]4)c3c2)c1` [Compound 186, N,N-Dimethyl-1-(5-(3-(7-(pyridin-2-yl)-3H-imidazo[4,5-c]pyridin-2-yl)-1H-indazol-5-yl)pyridin-3-yl)methanamine], the IC50 came out at 38 nM.

As to `CN(C)Cc1cncc(-c2ccc3[nH]nc(-c4nc5c(-c6cncc(F)c6)cncc5[nH]4)c3c2)c1` [Compound 16, 1-(5-(3-(7-(5-fluoropyridin-3-yl)-3H-imidazo[4,5-c]pyridin-2-yl)-1H-indazol-5-yl)pyridin-3-yl)-N,N-dimethylmethanamine], the IC50 was in the range of 164 to 200 nM.

Regarding `Nc1cncc(-c2ccc3[nH]nc(-c4nc5ccncc5[nH]4)c3c2)c1` [Compound 268, 5-(3-(3H-Imidazo[4,5-c]pyridin-2-yl)-1H-indazol-5-yl)pyridin-3-amine], the IC50 is > 10000 nM.

Regarding `Cc1ccncc1-c1ccc2[nH]nc(-c3nc4c(-c5ccncc5)cncc4[nH]3)c2c1` [Compound 154, 2-(5-(4-Methylpyridin-3-yl)-1H-indazol-3-yl)-7-(pyridin-4-yl)-3H-imidazo[4,5-c]pyridine], the IC50 amounted to 373 nM.

Regarding `CCC(=O)Nc1cncc(-c2ccc3[nH]nc(-c4nc5c(-c6cccc(F)c6)cncc5[nH]4)c3c2)c1` [Compound 24, N-(5-(3-(7-(3-Fluorophenyl)-3H-imidazo[4,5-c]pyridin-2-yl)-1H-indazol-5-yl)pyridin-3-yl)propionamide], the IC50 was 66 nM.

Consider `CN1CCN(c2cncc3[nH]c(-c4n[nH]c5ccc(-c6cncc(NC(=O)C7CC7)c6)cc45)nc23)CC1` [Compound 260, N-(5-(3-(7-(4-Methylpiperazin-1-yl)-3H-imidazo[4,5-c]pyridin-2-yl)-1H-indazol-5-yl)pyridin-3-yl)cyclopropanecarboxamide], for which the IC50 was 315 nM.

In the case of `CN1CCN(c2cncc3[nH]c(-c4n[nH]c5ccc(-c6cncc(N7CCOCC7)c6)cc45)nc23)CC1` [Compound 5, 4-(5-(3-(7-(4-methylpiperazin-1-yl)-3H-imidazo[4,5-c]pyridin-2-yl)-1H-indazol-5-yl)pyridin-3-yl)morpholine], the IC50 fell in the range of 67 to 98 nM.

For `CN(C)Cc1cncc(-c2ccc3[nH]nc(-c4nc5c(N6CCN(C)CC6)cncc5[nH]4)c3c2)c1` [Compound 3, N,N-dimethyl-1-(5-(3-(7-(4-methylpiperazin-1-yl)-3H-imidazo[4,5-c]pyridin-2-yl)-1H-indazol-5-yl)pyridin-3-yl)methanamine], the IC50 lay within 83 to 179 nM.

In the case of `CC(C)(C)CC(=O)Nc1cncc(-c2ccc3[nH]nc(-c4nc5c(-c6ccsc6)cncc5[nH]4)c3c2)c1` [Compound 304, 3,3-Dimethyl-N-(5-(3-(7-(thiophen-3-yl)-3H-imidazo[4,5-c]pyridin-2-yl)-1H-indazol-5-yl)pyridin-3-yl)butanamide], the IC50 came out at 3 nM.

Turning to `CN1CCN(c2cncc3[nH]c(-c4n[nH]c5ccc(-c6cncc(N)c6)cc45)nc23)CC1` [Compound 247, 5-(3-(7-(4-Methylpiperazin-1-yl)-3H-imidazo[4,5-c]pyridin-2-yl)-1H-indazol-5-yl)pyridin-3-amine], the IC50 came to 2 nM.

Take `CC(C)CC(=O)Nc1cncc(-c2ccc3[nH]nc(-c4nc5c(N6CCCCC6)cncc5[nH]4)c3c2)c1` [Compound 199, 3-Methyl-N-(5-(3-(7-(piperidin-1-yl)-3H-imidazo[4,5-c]pyridin-2-yl)-1H-indazol-5-yl)pyridin-3-yl)butanamide]: the IC50 was 311 nM.

As to `Fc1ccccc1-c1cncc2[nH]c(-c3n[nH]c4ccc(-c5cncc(CN6CCCCC6)c5)cc34)nc12` [Compound 127, 7-(2-Fluorophenyl)-2-(5-(5-(piperidin-1-ylmethyl)pyridin-3-yl)-1H-indazol-3-yl)-3H-imidazo[4,5-c]pyridine], the IC50 came to 14 nM.

In the case of `O=C(Nc1cncc(-c2ccc3[nH]nc(-c4nc5c(-c6ccc(F)cc6)cncc5[nH]4)c3c2)c1)C1CCC1` [Compound 111, N-(5-(3-(7-(4-Fluorophenyl)-3H-imidazo[4,5-c]pyridin-2-yl)-1H-indazol-5-yl)pyridin-3-yl)cyclobutanecarboxamide], the IC50 was 6 nM.

For the compound `CC(C)(C)CC(=O)Nc1cncc(-c2ccc3[nH]nc(-c4nc5ccncc5[nH]4)c3c2)c1` [Compound 280, N-(5-(3-(3H-Imidazo[4,5-c]pyridin-2-yl)-1H-indazol-5-yl)pyridin-3-yl)-3,3-dimethylbutanamide], the IC50 turned out to be 21 nM.

Turning to `c1cc(-c2cncc3[nH]c(-c4n[nH]c5ccc(-c6cncc(CN7CCCCC7)c6)cc45)nc23)ccn1` [Compound 164, 2-(5-(5-(Piperidin-1-ylmethyl)pyridin-3-yl)-1H-indazol-3-yl)-7-(pyridin-4-yl)-3H-imidazo[4,5-c]pyridine], the IC50 was > 6000 nM.

With `O=C(Cc1ccccc1)Nc1cncc(-c2ccc3[nH]nc(-c4nc5ccncc5[nH]4)c3c2)c1` [Compound 274, N-(5-(3-(3H-Imidazo[4,5-c]pyridin-2-yl)-1H-indazol-5-yl)pyridin-3-yl)-2-phenylacetamide], the IC50 was > 10000 nM.

In the case of `c1cc(-c2cncc3[nH]c(-c4n[nH]c5ccc(-c6cncc(CNCC7CCCC7)c6)cc45)nc23)cs1` [Compound 311, 1-Cyclopentyl-N-((5-(3-(7-(thiophen-3-yl)-3H-imidazo[4,5-c]pyridin-2-yl)-1H-indazol-5-yl)pyridin-3-yl)methyl)methanamine], the IC50 stood at 58 nM.

With `FC1(F)CCN(Cc2cncc(-c3ccc4[nH]nc(-c5nc6c(-c7cccnc7)cncc6[nH]5)c4c3)c2)C1` [Compound 339, 2-(5-(5-((3,3-Difluoropyrrolidin-1-yl)methyl)pyridin-3-yl)-1H-indazol-3-yl)-7-(pyridin-3-yl)-3H-imidazo[4,5-c]pyridine], the IC50 worked out at 39 nM.

Take `CC(C)(C)C(=O)Nc1cncc(-c2ccc3[nH]nc(-c4nc5c(-c6ccc(F)cc6)cncc5[nH]4)c3c2)c1` [Compound 102, N-(5-(3-(7-(4-Fluorophenyl)-3H-imidazo[4,5-c]pyridin-2-yl)-1H-indazol-5-yl)pyridin-3-yl)pivalamide]: the IC50 was 4 nM.

The values above are taken from US10407425B2, “Indazole inhibitors of the Wnt signal pathway and therapeutic uses thereof” (Samumed, LLC, priority 2012, dated 2019).
